# Paper PMC6197744, “Triazolo[4,5-d]pyrimidines as Validated General Control Nonderepressible 2 (GCN2) Protein Kinase Inhibitors Reduce Growth of Leukemia Cells” (Computational and Structural Biotechnology Journal, 2018)
# Tests used:
# Assay type in all cases: binding
# [1] = molecular target: standard panel of 50 protein kinases; test: Broad kinase panel screen, whole panel; conditions: 0.5 μM
# Protocol: Compounds 1–9 were screened in a radiometric […] kinase assay against human GCN2 and other kinases involved in the UPR and ISR pathways (Table 1). […] The most soluble of the potent tool compounds (1 and 2) were selected for in vitro cell-based assays where the phosphorylation of eIF2α (p-eIF2α) was used as a readout for GCN2 inhibition.
# (§1) Compound 2 was screened against a standard panel of 50 protein kinases by Luceome Biotechnologies (Tucson, AZ). In brief, Compound 2 was dissolved and diluted in DMSO to a concentration of 12.5 μM from a 10 mM stock solution. As a control, compound 2 was evaluated for false positive against split-luciferase. For kinase assays, each C-terminal half of firefly luciferase linked kinase (Cfluc-Kinase) was translated along with the coiled coil Fos attached to the N-terminal fragment (Nfluc) (Fos-Nfluc) using rabbit reticulocyte lysate at 30 °C for 90 min. 24 µL aliquot of this lysate containing 1 µL of either DMSO or Compound 2 (at a final concentration 0.5 μM) was incubated for 30 minutes at room temperature followed by 1 hour incubation in the presence of a kinase specific probe. Finally, 80 µL of luciferin assay reagent was added and luminescence was immediately measured on a luminometer. Compound 2 was screened in duplicate against each kinase.
# (§2) The % Inhibition and % Activity Remaining was calculated using the following equations: […]
# [2] = molecular target: T1, ACVR2A/ACVR2 (Homo sapiens, UniProt P27037); test: Broad kinase panel screen (split-luciferase); conditions: ACVR2A/ACVR2, 0.5 uM
# T1 construct: purchased Luceome Biotechnologies
# Protocol: as §1, §2
# [3] = molecular target: T2, AKT2 (Homo sapiens, UniProt P31751); test: Broad kinase panel screen (split-luciferase); conditions: AKT2, 0.5 uM
# T2 construct: purchased Luceome Biotechnologies
# Protocol: as §1, §2
# [4] = molecular target: T3, AKT3 (Homo sapiens, UniProt Q9Y243); test: Broad kinase panel screen (split-luciferase); conditions: AKT3, 0.5 uM
# T3 construct: purchased Luceome Biotechnologies
# Protocol: as §1, §2
# [5] = molecular target: T4, AURKA (Homo sapiens, UniProt O14965); test: Broad kinase panel screen (split-luciferase)
# T4 construct: purchased Luceome Biotechnologies
# Protocol: as §1, §2
# [6] = molecular target: T5, CAMK1D (Homo sapiens, UniProt Q8IU85); test: Broad kinase panel screen (split-luciferase)
# T5 construct: purchased Luceome Biotechnologies
# Protocol: as §1, §2
# [7] = molecular target: T6, CDK5 (Homo sapiens, UniProt Q00535); test: Broad kinase panel screen (split-luciferase); conditions: CDK5, 0.5 uM
# T6 construct: purchased Luceome Biotechnologies
# Protocol: as §1, §2
# [8] = molecular target: T7, CLK2 (Homo sapiens, UniProt P49760); test: Broad kinase panel screen (split-luciferase); conditions: CLK2, 0.5 uM
# T7 construct: purchased Luceome Biotechnologies
# Protocol: as §1, §2
# [9] = molecular target: T8, EPHA5 (Homo sapiens, UniProt P54756); test: Broad kinase panel screen (split-luciferase); conditions: EPHA5, 0.5 uM
# T8 construct: purchased Luceome Biotechnologies
# Protocol: as §1, §2
# [10] = molecular target: T9, FLT1/VEGFR1 (Homo sapiens, UniProt P17948); test: Broad kinase panel screen (split-luciferase); conditions: FLT1/VEGFR1, 0.5 uM
# T9 construct: purchased Luceome Biotechnologies
# Protocol: as §1, §2
# [11] = molecular target: T10, FLT3 (Homo sapiens, UniProt P36888); test: Broad kinase panel screen (split-luciferase); conditions: FLT3, 0.5 uM
# T10 construct: purchased Luceome Biotechnologies
# Protocol: as §1, §2
# [12] = molecular target: T11, MAP3K10 /MLK2 (Homo sapiens, UniProt Q02779); test: Broad kinase panel screen (split-luciferase); conditions: MAP3K10 /MLK2, 0.5 uM
# T11 construct: purchased Luceome Biotechnologies
# Protocol: as §1, §2
# [13] = molecular target: T12, MAP3K11/MLK3 (Homo sapiens, UniProt Q16584); test: Broad kinase panel screen (split-luciferase); conditions: MAP3K11/MLK3, 0.5 uM
# T12 construct: purchased Luceome Biotechnologies
# Protocol: as §1, §2
# [14] = molecular target: T13, MSK2/RPS6KA4 (Homo sapiens, UniProt O75676); test: Broad kinase panel screen (split-luciferase); conditions: MSK2/RPS6KA4, 0.5 uM
# T13 construct: purchased Luceome Biotechnologies
# Protocol: as §1, §2
# [15] = molecular target: T14, MST2 (Homo sapiens, UniProt Q13188); test: Broad kinase panel screen (split-luciferase); conditions: MST2, 0.5 uM
# T14 construct: purchased Luceome Biotechnologies
# Protocol: as §1, §2
# [16] = molecular target: T15, PKA/PRKACA (Homo sapiens, UniProt P17612); test: Broad kinase panel screen (split-luciferase)
# T15 construct: purchased Luceome Biotechnologies
# Protocol: as §1, §2
# [17] = molecular target: T16, PKCe/PRKCE (Homo sapiens, UniProt Q02156); test: Broad kinase panel screen (split-luciferase)
# T16 construct: purchased Luceome Biotechnologies
# Protocol: as §1, §2
# [18] = molecular target: T17, PKX/PRKX (Homo sapiens, UniProt P51817); test: Broad kinase panel screen (split-luciferase)
# T17 construct: purchased Luceome Biotechnologies
# Protocol: as §1, §2
# [19] = molecular target: T18, PLK4 (Homo sapiens, UniProt O00444); test: Broad kinase panel screen (split-luciferase); conditions: PLK4, 0.5 uM
# T18 construct: purchased Luceome Biotechnologies
# Protocol: as §1, §2
# [20] = molecular target: T19, PTK2B/PYK2 (Homo sapiens, UniProt Q14289); test: Broad kinase panel screen (split-luciferase); conditions: PTK2B/PYK2, 0.5 uM
# T19 construct: purchased Luceome Biotechnologies
# Protocol: as §1, §2
# [21] = molecular target: T20, RSK2/RPS6KA3 (Homo sapiens, UniProt P51812); test: Broad kinase panel screen (split-luciferase); conditions: RSK2/RPS6KA3, 0.5 uM
# T20 construct: purchased Luceome Biotechnologies
# Protocol: as §1, §2
# [22] = molecular target: T21, SLK (Homo sapiens, UniProt Q9H2G2); test: Broad kinase panel screen (split-luciferase)
# T21 construct: purchased Luceome Biotechnologies
# Protocol: as §1, §2
# [23] = molecular target: T22, VEGFR2/KDR/FLK1 (Homo sapiens, UniProt P35968); test: Broad kinase panel screen (split-luciferase); conditions: VEGFR2/KDR/FLK1, 0.5 uM
# T22 construct: purchased Luceome Biotechnologies
# Protocol: as §1, §2
# [24] = molecular target: T23, YSK1 (Homo sapiens, UniProt O00506); test: Broad kinase panel screen (split-luciferase); conditions: YSK1, 0.5 uM
# T23 construct: purchased Luceome Biotechnologies
# Protocol: as §1, §2
# T12 sequence (Q16584 whole entry): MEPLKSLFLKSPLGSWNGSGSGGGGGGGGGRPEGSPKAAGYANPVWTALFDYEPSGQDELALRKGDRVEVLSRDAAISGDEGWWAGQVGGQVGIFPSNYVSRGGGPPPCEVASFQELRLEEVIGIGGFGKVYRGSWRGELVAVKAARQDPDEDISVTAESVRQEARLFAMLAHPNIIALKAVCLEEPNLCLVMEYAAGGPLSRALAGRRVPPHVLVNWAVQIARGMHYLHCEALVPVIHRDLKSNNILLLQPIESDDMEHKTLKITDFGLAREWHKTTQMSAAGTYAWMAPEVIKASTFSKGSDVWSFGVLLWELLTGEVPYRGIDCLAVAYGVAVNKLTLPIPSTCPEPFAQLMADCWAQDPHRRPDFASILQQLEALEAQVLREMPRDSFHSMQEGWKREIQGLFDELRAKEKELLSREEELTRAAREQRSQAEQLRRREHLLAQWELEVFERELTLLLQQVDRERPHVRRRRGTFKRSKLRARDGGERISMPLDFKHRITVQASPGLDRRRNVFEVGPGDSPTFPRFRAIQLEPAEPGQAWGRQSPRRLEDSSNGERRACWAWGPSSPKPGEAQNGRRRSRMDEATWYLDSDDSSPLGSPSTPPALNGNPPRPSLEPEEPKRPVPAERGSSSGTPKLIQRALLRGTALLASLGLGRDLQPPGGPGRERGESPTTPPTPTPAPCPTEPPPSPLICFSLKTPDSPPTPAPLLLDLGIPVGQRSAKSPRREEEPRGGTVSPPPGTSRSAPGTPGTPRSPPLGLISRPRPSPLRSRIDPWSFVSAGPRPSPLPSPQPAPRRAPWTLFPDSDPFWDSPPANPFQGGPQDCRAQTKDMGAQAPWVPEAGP
# T20 sequence (P51812 whole entry): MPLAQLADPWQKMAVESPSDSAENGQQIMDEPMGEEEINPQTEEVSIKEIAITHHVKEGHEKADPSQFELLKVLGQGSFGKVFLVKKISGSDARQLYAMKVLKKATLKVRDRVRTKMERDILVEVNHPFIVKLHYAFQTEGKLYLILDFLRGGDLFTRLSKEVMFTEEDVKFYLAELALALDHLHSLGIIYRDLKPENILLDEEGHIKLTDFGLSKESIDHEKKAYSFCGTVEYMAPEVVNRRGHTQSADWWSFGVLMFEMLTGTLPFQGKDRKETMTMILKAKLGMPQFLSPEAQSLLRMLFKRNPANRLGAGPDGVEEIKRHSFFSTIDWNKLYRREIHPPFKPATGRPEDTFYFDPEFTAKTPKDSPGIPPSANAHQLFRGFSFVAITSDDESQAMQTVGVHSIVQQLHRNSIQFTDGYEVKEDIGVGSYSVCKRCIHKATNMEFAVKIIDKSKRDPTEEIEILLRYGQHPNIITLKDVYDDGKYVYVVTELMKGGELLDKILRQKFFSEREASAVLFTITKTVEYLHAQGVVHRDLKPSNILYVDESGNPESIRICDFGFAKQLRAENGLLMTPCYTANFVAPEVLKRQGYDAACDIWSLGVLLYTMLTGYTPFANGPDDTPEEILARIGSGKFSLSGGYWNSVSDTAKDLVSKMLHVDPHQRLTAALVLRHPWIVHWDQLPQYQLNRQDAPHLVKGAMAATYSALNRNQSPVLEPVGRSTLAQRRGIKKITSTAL
# T4 sequence (O14965 whole entry): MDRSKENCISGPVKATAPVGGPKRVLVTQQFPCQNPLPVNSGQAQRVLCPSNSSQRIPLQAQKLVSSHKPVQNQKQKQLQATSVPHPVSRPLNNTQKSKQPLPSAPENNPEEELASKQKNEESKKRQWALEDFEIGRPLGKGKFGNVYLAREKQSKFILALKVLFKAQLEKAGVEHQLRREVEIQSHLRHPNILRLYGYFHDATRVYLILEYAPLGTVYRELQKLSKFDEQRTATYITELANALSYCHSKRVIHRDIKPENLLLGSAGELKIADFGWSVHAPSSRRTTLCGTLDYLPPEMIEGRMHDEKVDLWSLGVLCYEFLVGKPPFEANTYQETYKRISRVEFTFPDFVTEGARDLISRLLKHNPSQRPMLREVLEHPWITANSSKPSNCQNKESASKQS
# T3 sequence (Q9Y243 whole entry): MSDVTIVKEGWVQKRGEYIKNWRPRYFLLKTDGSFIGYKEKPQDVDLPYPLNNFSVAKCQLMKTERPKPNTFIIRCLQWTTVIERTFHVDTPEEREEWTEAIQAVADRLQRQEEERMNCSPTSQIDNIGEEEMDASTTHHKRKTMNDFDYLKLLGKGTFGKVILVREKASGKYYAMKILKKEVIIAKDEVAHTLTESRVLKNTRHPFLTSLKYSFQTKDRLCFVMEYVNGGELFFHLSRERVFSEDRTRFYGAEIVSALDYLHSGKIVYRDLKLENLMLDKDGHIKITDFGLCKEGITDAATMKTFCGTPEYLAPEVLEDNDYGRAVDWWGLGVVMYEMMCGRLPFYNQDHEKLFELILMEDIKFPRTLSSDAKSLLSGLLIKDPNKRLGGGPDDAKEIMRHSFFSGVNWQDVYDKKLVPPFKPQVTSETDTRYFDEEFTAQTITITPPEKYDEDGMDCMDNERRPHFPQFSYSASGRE
# T2 sequence (P31751 whole entry): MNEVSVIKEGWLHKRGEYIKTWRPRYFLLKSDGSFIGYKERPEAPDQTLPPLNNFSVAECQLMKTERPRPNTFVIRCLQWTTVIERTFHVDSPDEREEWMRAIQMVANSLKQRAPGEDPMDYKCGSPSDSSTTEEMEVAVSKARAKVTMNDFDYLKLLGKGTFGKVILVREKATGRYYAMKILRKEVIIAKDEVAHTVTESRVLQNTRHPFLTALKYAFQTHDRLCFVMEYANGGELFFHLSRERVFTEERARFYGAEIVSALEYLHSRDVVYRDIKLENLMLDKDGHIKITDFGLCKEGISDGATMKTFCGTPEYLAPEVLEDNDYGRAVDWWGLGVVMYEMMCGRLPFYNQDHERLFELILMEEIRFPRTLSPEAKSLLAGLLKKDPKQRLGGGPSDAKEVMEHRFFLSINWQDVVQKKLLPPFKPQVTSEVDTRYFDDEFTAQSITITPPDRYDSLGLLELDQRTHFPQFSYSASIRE
# T16 sequence (Q02156 whole entry): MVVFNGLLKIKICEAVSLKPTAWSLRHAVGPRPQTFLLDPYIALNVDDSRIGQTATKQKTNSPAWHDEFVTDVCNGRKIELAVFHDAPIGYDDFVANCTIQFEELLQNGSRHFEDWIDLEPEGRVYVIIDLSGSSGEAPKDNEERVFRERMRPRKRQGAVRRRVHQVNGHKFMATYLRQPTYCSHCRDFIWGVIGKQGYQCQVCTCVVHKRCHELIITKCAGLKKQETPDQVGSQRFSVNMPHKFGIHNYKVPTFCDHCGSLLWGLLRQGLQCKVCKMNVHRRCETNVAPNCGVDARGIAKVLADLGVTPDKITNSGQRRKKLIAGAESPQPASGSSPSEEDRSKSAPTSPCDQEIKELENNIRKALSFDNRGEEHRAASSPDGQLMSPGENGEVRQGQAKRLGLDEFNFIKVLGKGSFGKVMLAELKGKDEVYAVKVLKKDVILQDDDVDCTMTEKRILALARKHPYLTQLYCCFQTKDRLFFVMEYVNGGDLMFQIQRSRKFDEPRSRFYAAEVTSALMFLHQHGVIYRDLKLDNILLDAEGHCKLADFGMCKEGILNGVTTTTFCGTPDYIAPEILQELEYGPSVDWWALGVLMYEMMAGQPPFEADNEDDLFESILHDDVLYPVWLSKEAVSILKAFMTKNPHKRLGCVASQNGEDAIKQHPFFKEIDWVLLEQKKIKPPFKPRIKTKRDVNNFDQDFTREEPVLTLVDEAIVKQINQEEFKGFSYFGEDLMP
# T22 sequence (P35968 20-1356): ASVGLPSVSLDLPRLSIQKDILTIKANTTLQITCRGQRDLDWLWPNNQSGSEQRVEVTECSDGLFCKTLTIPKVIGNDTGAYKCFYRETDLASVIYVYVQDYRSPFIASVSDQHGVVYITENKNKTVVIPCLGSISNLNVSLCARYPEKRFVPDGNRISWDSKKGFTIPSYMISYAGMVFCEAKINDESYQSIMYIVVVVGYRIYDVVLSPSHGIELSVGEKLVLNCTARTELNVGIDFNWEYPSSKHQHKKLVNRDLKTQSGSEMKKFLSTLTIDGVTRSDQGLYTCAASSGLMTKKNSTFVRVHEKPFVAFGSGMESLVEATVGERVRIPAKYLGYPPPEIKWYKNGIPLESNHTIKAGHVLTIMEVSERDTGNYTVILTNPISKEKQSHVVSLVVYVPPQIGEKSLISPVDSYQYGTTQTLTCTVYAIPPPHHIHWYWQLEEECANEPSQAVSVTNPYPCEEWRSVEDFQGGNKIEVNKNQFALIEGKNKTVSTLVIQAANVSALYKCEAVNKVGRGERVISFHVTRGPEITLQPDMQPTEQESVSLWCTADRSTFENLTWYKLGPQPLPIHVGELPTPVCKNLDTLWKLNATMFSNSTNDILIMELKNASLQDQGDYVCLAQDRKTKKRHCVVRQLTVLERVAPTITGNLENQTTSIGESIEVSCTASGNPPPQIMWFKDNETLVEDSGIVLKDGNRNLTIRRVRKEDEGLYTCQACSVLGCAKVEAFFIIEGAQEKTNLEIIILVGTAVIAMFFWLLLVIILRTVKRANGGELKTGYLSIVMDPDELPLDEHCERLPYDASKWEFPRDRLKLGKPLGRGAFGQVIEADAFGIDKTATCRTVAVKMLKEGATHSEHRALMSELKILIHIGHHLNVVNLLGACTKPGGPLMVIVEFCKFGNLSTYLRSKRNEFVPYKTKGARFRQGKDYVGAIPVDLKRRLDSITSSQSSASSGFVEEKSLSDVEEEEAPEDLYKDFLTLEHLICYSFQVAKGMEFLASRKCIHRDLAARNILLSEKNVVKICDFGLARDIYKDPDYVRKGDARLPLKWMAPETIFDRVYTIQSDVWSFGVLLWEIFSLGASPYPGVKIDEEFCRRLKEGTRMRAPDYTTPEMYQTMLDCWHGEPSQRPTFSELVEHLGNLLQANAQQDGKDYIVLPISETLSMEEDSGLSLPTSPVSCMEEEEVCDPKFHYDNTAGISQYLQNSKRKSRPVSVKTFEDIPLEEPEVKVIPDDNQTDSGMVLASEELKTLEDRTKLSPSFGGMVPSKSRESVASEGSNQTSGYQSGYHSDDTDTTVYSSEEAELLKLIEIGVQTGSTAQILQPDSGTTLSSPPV
smiles,measurement,setting,value
"CCOc1ccc(-n2nnc3cnc(Nc4cnn(CC)c4)nc32)cc1 [Compound 2, 3-(4-Ethoxyphenyl)-N-(1-ethyl-1H-pyrazol-4-yl)-3H-[1,2,3]triazolo[4,5-d]pyrimidin-5-amine]",kinase inhibition in standard broad kinase panel (in words),[1],no significant kinase inhibition
same,remaining activity at 0.5 µM,[2],100%
same,remaining activity at 0.5 µM,[3],96.8%
same,remaining activity at 0.5 µM,[4],100%
same,remaining activity at 0.5 µM,[5],97.1%
same,remaining activity at 0.5 µM,[6],92.9%
same,remaining activity at 0.5 µM,[7],94.4%
same,remaining activity at 0.5 µM,[8],93%
same,remaining activity at 0.5 µM,[9],97.8%
same,remaining activity at 0.5 µM,[10],51.7%
same,remaining activity at 0.5 µM,[11],100%
same,remaining activity at 0.5 µM,[12],96.7%
same,remaining activity at 0.5 µM,[13],100%
same,remaining activity at 0.5 µM,[14],100%
same,remaining activity at 0.5 µM,[15],100%
same,remaining activity at 0.5 µM,[16],100%
same,remaining activity at 0.5 µM,[17],100%
same,remaining activity at 0.5 µM,[18],97.7%
same,remaining activity at 0.5 µM,[19],100%
same,remaining activity at 0.5 µM,[20],96%
same,remaining activity at 0.5 µM,[21],89.9%
same,remaining activity at 0.5 µM,[22],98.7%
same,remaining activity at 0.5 µM,[23],77.1%
same,remaining activity at 0.5 µM,[24],93.6%
